Assay results reported in US20080288176A1 (priority 2005, published 2008).

Experiments:
[1] = Plasma NAPROXEN AUC0-6h after oral dosing; type: in vivo, rat; settings: male Wistar rats
Protocol: Table 1 is a summary of the protocol for a study which was conducted in male Wistar rats weighing 275-300 grams. The animals were allowed to acclimatize for at least five days prior to the commencement of the study. The study protocol was approved by the local animal ethics committee.

[2] = Hydrolysis in human plasma; type: in vitro ADME
Excerpt: The physiologically based pharmacokinetic/pharmacodynamic model of the present invention contains a series of compartments that describe the time course of a nonsteroidal anti-inflammatory prodrug, its active metabolites and nitric oxide release in intestine, liver, kidneys, blood/plasma and heart after prodrug administration. The time course of the prodrug, its active metabolites and nitric oxide release can be simulated using a series of in vitro and in silico inputs. The stability of each component in the gastrointestinal lumen is estimated using data collected from artificial gastric and intestinal juice. Intestinal metabolism is estimated using intestinal microsomes and absorption rate is estimated using permeability data collected from a cell monolayer such as Caco-2. Hepatic elimination is estimated using liver microsomes and stability in plasma is calculated using degradation of each component in the media. Plasma protein binding can either be measured using a standardized in vitro method or it can be estimated using an in silico method. The distribution of each component in various parts of the body is estimated using an in silico method. The rate of nitric oxide release is estimated using an in vitro endothelial cell model. […]

[3] = in vitro; Knaus et al., 2005; cited from earlier work

SMILES	AUC0-6h of NAPROXEN compared with parent drug (in words) [1]	plasma decay rate constant [2]	NO generating capacity relative to AZD 3582 [3]
COc1ccc2cc([C@H](C)C(=O)OCCCCO[N+](=O)[O-])ccc2c1 [AZD 3582]	much lower than for NAPROXEN parent drug	1.0 min⁻¹	–
COc1ccc2cc(C(C)C(=O)OCON=[N+]([O-])N3CCCC3)ccc2c1 (stereo not drawn) [PYRO-NO-NAP, pyrrolidino-diazeniumdiolate-naproxen]	–	–	13 times
